According to ChEMBL document CHEMBL1201862, “PubChem BioAssay data set” (2004):
The source made the active and inactive calls.

Key:
[1] = Luminescence Cell-Based Dose Confirmation HTS to Identify Activators of 5'UTR Stem-Loop Driven Alpha-Synuclein mRNA Translation in H4 Neuroglioblastoma Cells. [Related pubchem assays: 1829 (Project Summary), 1814 (Primary HTS)]; type: functional
[2] = Luminescence Cell-Based Dose Response HTS to Identify Activators of Luciferase Translation or Activity in H4 […] Cells. [Related pubchem assays: 1829 (Project Summary), 1814 (Primary HTS)]; type: functional
H4 = assay: Luminescence Cell-Based Dose Response HTS to Identify Activators of 5'UTR Stem-Loop Driven Prion Protein mRNA Translation in H4 Neuroglioblastoma Cells. [Related pubchem assays: 1829 (Project Summary), 1814 (Primary HTS)]; type: functional; settings: Homo sapiens
Vero [3] = assay: mammalian cell viability reduction – secondary assay, cytotoxicity control for West Nile virus antiviral project, dose response (AID 1650); type: functional; settings: Chlorocebus sabaeus
Vero [4] = assay: inhibition of WNV-induced cytopathic effect – cell-based, CPE readout (AID 1621); type: functional; settings: Chlorocebus sabaeus
[5] = Luminescence Cell-Based Dose Retest to Confirm Inhibitors of Cancer Stem Cells. [Related pubchem assays (depositor defined):AID2717, AID2721]; type: functional; settings: Homo sapiens
[6] = biological target: T1, Microphthalmia-associated transcription factor (Homo sapiens, UniProt O75030); assay: reducers of TRPM1 reporter luminescence, concentration series – cell-based, SK-MEL-5, cherry-picked, set 3, MITF inhibitor project, dose response (AID 493073); type: functional;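 further: SK-MEL-5 melanoma cells with luciferase driven by the MITF target TRPM1 promoter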
T1 sequence (O75030 whole entry): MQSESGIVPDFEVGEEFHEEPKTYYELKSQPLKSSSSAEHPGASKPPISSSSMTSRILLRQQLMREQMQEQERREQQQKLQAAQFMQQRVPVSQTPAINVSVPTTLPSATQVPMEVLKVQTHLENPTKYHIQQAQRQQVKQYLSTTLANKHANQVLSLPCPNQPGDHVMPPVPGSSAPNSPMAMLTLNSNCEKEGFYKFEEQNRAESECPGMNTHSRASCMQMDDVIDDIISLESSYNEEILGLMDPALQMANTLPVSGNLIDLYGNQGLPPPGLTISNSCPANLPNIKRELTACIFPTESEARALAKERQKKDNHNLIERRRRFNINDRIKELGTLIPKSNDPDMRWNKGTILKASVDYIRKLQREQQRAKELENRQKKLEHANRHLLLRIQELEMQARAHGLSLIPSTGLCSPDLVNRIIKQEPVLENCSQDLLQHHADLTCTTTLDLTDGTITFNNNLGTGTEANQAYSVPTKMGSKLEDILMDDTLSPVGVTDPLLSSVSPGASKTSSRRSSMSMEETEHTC

[7] = biological target: T2, Aryl hydrocarbon receptor (Homo sapiens, UniProt P35869); assay: Luminescence-based cell-based high throughput dose response assay for activators of the Aryl Hydrocarbon Receptor (AHR). [Related pubchem assays: 2796 (Primary screen (AHR activators in singlicate)), 2845 (Confirmation screen (AHR activators in triplicate)), 434939 (Counterscreen (PXR activators in triplicate)), 2804 (Summary (AHR activators))]; type: ADME
T2 sequence (P35869 whole entry): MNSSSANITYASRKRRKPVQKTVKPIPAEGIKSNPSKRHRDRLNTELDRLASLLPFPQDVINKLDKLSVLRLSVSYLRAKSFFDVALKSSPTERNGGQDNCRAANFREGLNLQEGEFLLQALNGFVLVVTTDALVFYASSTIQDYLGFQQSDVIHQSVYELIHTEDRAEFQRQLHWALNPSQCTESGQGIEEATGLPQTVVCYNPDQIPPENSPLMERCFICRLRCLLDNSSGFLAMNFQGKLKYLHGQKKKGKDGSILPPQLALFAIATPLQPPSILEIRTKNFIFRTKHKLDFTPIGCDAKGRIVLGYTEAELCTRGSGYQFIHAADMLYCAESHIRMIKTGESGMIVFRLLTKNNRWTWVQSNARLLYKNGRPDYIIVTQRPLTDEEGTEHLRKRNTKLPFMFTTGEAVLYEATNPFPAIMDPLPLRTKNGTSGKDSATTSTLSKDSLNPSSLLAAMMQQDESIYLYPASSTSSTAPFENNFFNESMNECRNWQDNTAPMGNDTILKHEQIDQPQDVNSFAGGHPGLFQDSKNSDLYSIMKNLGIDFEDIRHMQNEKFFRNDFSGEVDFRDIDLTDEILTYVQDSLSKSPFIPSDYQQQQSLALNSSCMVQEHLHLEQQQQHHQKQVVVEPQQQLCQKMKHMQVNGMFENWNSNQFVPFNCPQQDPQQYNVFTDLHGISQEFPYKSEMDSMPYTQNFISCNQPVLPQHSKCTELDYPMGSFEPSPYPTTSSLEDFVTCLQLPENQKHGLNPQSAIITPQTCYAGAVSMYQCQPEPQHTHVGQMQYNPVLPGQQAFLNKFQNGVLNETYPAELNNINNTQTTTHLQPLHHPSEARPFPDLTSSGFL

[8] = biological target: FAD-linked sulfhydryl oxidase ALR (Homo sapiens, UniProt P55789); assay: ALR-catalysed DTT oxidation blockers – biochemical, H2O2 detection, luminescence, cherry-pick, dose response (AID 493248)
[9] = biological target: Mitogen-activated protein kinase 10 (Homo sapiens, UniProt P53779); assay: Dose response biochemical screening assay for inhibitors of c-Jun N-Terminal Kinase 3 (JNK3). [Related pubchem assays: 746 ]
[10] = blockers of HIV-1 ZM109 envelope-driven cell-cell fusion – HeLa effector, CEM target cells, luciferase, cherry-pick, dose response (AID 652058); type: functional, cell-based;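 further: luciferase signal from HIV-1 Env mediated cell-cell fusion of effector and target cells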
[11] = HIV-1 AD8 envelope cell-cell fusion blockers – cherry-pick, dose response (AID 652062); type: functional, cell-based;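 further: luciferase signal from cell-cell fusion driven by HIV-1 clade B AD8 Env; potency is for inhibitors of fusion seen as a drop in luminescence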
Aspartyl aminopeptidase = biological target: T3, Aspartyl aminopeptidase (Plasmodium falciparum 3D7, UniProt Q8I2J3); assay: Counterscreen for inhibitors of M1 and M17 aminopeptidases: QFRET-based biochemical high throughput dose response assay for inhibitors of the Plasmodium falciparum M18 Aspartyl Aminopeptidase (PFM18AAP). [Related PubChem assays: 1619 (Screening assay (M17LAP inhibitors).), 1445 (Screening assay (M1AAP inhibitors).)]
T3 sequence (Q8I2J3 whole entry): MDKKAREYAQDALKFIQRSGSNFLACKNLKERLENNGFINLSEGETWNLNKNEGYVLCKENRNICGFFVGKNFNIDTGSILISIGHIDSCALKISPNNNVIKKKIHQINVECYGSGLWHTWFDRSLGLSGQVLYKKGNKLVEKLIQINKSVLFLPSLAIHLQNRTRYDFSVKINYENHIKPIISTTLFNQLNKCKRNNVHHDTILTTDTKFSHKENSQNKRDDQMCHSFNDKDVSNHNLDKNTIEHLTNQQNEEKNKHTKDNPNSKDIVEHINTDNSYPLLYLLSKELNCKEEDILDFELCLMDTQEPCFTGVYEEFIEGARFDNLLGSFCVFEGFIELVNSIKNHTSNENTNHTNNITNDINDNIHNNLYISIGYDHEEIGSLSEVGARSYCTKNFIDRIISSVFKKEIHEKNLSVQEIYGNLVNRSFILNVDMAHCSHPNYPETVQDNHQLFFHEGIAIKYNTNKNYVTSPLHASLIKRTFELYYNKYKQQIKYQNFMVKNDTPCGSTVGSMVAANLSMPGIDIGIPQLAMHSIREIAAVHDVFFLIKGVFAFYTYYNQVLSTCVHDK

Aminopeptidase N = biological target: T4, Aminopeptidase N (Plasmodium falciparum FcB1/Columbia, UniProt O96935); assay: malaria alanyl aminopeptidase activity blockers – biochemical, fluorogenic H-Leu-NHMec substrate, 1536-well (AID 1445); set-up: species or system Plasmodium falciparum 3D7, 3D7
T4 sequence (O96935 whole entry): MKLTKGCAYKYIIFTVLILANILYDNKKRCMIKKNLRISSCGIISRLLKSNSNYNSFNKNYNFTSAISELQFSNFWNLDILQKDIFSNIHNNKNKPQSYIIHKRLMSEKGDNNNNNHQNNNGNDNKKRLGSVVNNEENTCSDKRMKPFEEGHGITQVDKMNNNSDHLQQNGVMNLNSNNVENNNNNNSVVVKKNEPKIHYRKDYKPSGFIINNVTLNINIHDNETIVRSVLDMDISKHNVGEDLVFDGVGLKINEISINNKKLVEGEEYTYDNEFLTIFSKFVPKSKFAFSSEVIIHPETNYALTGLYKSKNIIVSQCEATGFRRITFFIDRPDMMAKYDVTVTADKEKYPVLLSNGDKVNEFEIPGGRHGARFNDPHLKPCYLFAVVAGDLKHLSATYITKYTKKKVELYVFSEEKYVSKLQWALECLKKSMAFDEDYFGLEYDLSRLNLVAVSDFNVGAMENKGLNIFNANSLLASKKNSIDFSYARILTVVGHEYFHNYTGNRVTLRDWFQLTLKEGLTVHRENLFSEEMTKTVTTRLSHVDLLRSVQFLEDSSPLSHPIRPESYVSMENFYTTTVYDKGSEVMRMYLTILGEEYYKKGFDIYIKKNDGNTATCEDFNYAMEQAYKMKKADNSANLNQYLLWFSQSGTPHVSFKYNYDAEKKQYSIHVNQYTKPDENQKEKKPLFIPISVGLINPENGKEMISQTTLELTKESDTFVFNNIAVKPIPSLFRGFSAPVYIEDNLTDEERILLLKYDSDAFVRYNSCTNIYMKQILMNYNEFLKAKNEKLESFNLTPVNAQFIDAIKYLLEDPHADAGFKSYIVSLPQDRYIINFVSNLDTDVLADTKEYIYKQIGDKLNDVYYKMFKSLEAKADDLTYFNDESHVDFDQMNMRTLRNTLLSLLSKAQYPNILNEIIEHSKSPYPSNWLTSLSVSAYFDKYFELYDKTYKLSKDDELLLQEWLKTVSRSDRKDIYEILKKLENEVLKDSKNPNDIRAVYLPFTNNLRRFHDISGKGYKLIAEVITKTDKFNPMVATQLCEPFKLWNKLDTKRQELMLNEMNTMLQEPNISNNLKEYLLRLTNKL

Procathepsin L = Procathepsin L (Homo sapiens, UniProt P07711); assay: CTSL1 protease inhibition – biochemical, QFRET, 1536-well, counter-screen for M1/M17 aminopeptidase inhibitor project, dose response (AID 2214)
Bcl-2-related protein A1 = biological target: T5, Bcl-2-related protein A1 (Mus musculus, UniProt Q07440); type: functional;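 further: confirmatory dose–response counterscreen on Bfl-1, used to check hits from a UBC13 polyubiquitin inhibitor campaign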
T5 sequence (Q07440 whole entry): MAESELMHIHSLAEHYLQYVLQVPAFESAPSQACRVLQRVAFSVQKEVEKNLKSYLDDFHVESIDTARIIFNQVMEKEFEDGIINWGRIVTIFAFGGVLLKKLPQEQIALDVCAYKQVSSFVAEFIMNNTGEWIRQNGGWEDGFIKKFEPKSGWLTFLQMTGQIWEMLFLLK

[12] = biological target: T6, Ubiquitin-conjugating enzyme E2 N (Homo sapiens, UniProt P61088); type: functional
T6 sequence (P61088 whole entry): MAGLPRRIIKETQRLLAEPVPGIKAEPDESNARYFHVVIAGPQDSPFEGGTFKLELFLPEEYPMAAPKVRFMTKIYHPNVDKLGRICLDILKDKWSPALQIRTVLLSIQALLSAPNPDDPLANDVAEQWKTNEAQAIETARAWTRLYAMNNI

[13] = biological target: T6, Ubiquitin-conjugating enzyme E2 N; type: functional; remark: listed apart in the source

Mitogen-activated protein kinase 10, sequence (P53779 whole entry, the tested form may be a part): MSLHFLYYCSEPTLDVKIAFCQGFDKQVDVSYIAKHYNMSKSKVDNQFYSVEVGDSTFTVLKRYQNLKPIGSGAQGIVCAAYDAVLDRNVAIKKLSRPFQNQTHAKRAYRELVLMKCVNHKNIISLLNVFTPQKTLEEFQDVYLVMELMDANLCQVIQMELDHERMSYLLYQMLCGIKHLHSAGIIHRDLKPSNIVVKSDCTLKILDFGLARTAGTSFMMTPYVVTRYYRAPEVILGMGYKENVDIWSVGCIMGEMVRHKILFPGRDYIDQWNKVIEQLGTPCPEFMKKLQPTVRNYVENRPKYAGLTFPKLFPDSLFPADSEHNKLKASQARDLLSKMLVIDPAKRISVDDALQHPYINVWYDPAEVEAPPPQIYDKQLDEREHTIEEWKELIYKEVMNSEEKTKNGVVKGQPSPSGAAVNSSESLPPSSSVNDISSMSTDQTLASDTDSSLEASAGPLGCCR
Procathepsin L, sequence (P07711 whole entry): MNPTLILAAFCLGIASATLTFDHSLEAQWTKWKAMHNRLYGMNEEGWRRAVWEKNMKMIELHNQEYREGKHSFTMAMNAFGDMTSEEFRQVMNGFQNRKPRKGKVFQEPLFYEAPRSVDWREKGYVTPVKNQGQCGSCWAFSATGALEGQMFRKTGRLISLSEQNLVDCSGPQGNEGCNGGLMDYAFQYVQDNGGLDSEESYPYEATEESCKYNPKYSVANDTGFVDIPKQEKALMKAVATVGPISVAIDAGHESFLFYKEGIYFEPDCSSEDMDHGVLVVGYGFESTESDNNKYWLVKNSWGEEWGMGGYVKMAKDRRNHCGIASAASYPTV
FAD-linked sulfhydryl oxidase ALR, sequence (P55789 whole entry): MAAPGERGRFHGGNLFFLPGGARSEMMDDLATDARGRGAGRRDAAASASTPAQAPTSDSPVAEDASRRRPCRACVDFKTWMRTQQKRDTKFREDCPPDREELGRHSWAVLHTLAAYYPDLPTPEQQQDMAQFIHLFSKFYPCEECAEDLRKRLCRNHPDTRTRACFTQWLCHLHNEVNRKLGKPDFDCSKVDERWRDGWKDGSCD

With `C=C1C(=O)C=C[C@]2(C)C[C@@H]3OC(=O)[C@](C)(O)[C@H]3C[C@@H]12` the EC50 [1] was 0.106 µM (active), the EC50 [2] was 0.153 µM (active) and the EC50 (H4) was 0.887 µM (active). The CC50 (Vero [3]) was 10.8 µM (active), the IC50 (Vero [4]) was 24.7 µM (active) and the AC50 [5] was 4.35 µM (active). For the same molecule, the AC50 [6] was 10.3 µM (active).
With `COc1ccccc1C(=O)Nc1ccc(N2CCCCC2)cc1` the EC50 [7] was 2.91 µM (active) and the AC50 [8] was 13.4 µM (active).
With `N#Cc1c(NCc2ccccc2)ccnc1NCc1cccnc1` the IC50 [9] was 3.96 µM (active), the AC50 [10] was 0.861 µM (active) and the AC50 [11] was 5.44 µM (active).
For `CC(=O)N1NC(=C2C(=O)N(C)C(=O)N(C)C2=O)CC1c1ccccc1` (centres undefined), the IC50 (Aspartyl aminopeptidase) was > 73.5 µM (not active), the IC50 (Aminopeptidase N) was 16 µM (active) and the IC50 (Procathepsin L) was > 59.6 µM (not active). For the same molecule, the IC50 (Bcl-2-related protein A1) was > 20 µM (inactive), the IC50 [12] was 12.5 µM (active) and the IC50 [13] was 19.5 µM (active).
With `c1ccc2nc3c(nc2c1)c1ccccc1n3CCN1CCOCC1` the IC50 [9] was > 93.1 µM (not active).
